In PubChem BioAssay AID328 (DTP/NCI, 2004):
Several values for one entry are separate records, joined by “and”; a condition that tells them apart may be missing. Equal entries are not always repeated. Toxic doses and inconclusive results are not listed. The calls were made as follows: active = survival T/C of 150% or more; inactive = T/C below 125% in these data. Residues, ends and D or L forms follow the SMILES beside them. *: point of attachment. Cbz = O=C(OCc1ccccc1)*

Test system: BDF1 mice, P388 leukemia ip, median survival T/C
Test: NCI In Vivo Anticancer Drug Screen. Data for tumor model P388 Leukemia (intraperitoneal) in B6D2F1 (BDF1) mice
Details: endpoint: median survival time, higher = longer survival
Summary of the method: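 Vehicle-dosed animals serve as the reference; survival of compound-dosed, tumour-implanted mice is divided by it.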

[1] = dose: 25.0 mg/kg/injection, schedule: Q01DX009 (ip), vehicle: saline
[2] = dose: 100.0 mg/kg/injection, schedule: Q04DX003 (ip), vehicle: saline with Tween-80
[3] = dose: 25.0 mg/kg/injection, schedule: Q04DX003 (ip), vehicle: saline
[4] = dose: 50.0 mg/kg/injection, schedule: Q04DX003 (ip), vehicle: saline
[5] = dose: 100.0 mg/kg/injection, schedule: Q04DX003 (ip), vehicle: saline
[6] = dose: 100.0 mg/kg/injection, schedule: Q01DX001 (ip), vehicle: saline sonified
[7] = dose: 50.0 mg/kg/injection, schedule: Q01DX009 (ip), vehicle: saline
[8] = dose: 12.5 mg/kg/injection, schedule: Q04DX003 (ip), vehicle: saline

Measured: T/C

Cc1nc2ccccc2nc1CI
inactive: dose: 2.9 mg/kg/injection, schedule: Q01DX009 (ip), vehicle: saline 110 % of control | dose: 4.5 mg/kg/injection, schedule: Q01DX009 (ip), vehicle: saline 120 % of control | dose: 10.0 mg/kg/injection, schedule: Q04DX003 (ip), vehicle: saline 115 % of control | dose: 17.0 mg/kg/injection, schedule: Q01DX009 (ip), vehicle: saline 100 % of control and 116 % of control | dose: 20.0 mg/kg/injection, schedule: Q04DX003 (ip), vehicle: saline 110 % of control | dose: 26.0 mg/kg/injection, schedule: Q01DX009 (ip), vehicle: saline 110 % of control | dose: 30.0 mg/kg/injection, schedule: Q01DX001 (ip), vehicle: Klucel (hydroxypropylcellulose) (HPC) 88 % of control | dose: 40.0 mg/kg/injection, schedule: Q01DX009 (ip), vehicle: saline 100 % of control and 116 % of control | dose: 40.0 mg/kg/injection, schedule: Q04DX003 (ip), vehicle: saline 110 % of control

CCOC(=O)CC1NCCC2C1CCC(OC)C2OC (centres undefined)
inactive: dose: 12.5 mg/kg/injection, schedule: Q01DX009 (ip), vehicle: saline with Tween-80 95 % of control | dose: 25.0 mg/kg/injection, schedule: Q01DX009 (ip), vehicle: saline with Tween-80 100 % of control | dose: 50.0 mg/kg/injection, schedule: Q01DX009 (ip), vehicle: saline with Tween-80 100 % of control | dose: 50.0 mg/kg/injection, schedule: Q04DX003 (ip), vehicle: other 110 % of control | dose: 100.0 mg/kg/injection, schedule: Q01DX009 (ip), vehicle: other 105 % of control | dose: 100.0 mg/kg/injection, schedule: Q04DX003 (ip), vehicle: other 100 % of control | dose: 200.0 mg/kg/injection, schedule: Q01DX009 (ip), vehicle: other 110 % of control | dose: 200.0 mg/kg/injection, schedule: Q04DX003 (ip), vehicle: other 100 % of control

NCCO/C=C/C(N)C(=O)O (centres undefined)
inactive: dose: 4.0 mg/kg/injection, schedule: Q01DX009 (ip), vehicle: saline 99 % of control | dose: 6.0 mg/kg/injection, schedule: Q01DX009 (ip), vehicle: saline 100 % of control | dose: 9.0 mg/kg/injection, schedule: Q01DX009 (ip), vehicle: saline 93 % of control | dose: 12.5 mg/kg/injection, schedule: Q01DX009 (ip), vehicle: saline 104 % of control | [1] 107 % of control

NC(=O)n1cccn1
inactive: dose: 30.0 mg/kg/injection, schedule: Q01DX010 (ip), vehicle: saline 100 % of control | dose: 50.0 mg/kg/injection, schedule: Q01DX010 (ip), vehicle: other 104 % of control | dose: 60.0 mg/kg/injection, schedule: Q01DX010 (ip), vehicle: saline 100 % of control | dose: 100.0 mg/kg/injection, schedule: Q01DX010 (ip), vehicle: other 100 % of control | dose: 120.0 mg/kg/injection, schedule: Q01DX010 (ip), vehicle: saline 109 % of control | dose: 240.0 mg/kg/injection, schedule: Q01DX010 (ip), vehicle: saline 122 % of control

COc1ccccc1CC(C)N (centres undefined)
inactive: dose: 20.0 mg/kg/injection, schedule: Q01DX009 (ip), vehicle: saline with Tween-80 87 % of control | dose: 80.0 mg/kg/injection, schedule: Q01DX009 (ip), vehicle: saline with Tween-80 91 % of control

O=C(O)C1CCCN1C(=O)C1CCCN1C(=O)OCc1ccccc1 (stereo not drawn) (Cbz-Pro-Pro-OH; configuration not given here)
inactive: dose: 50.0 mg/kg/injection, schedule: Q01DX005 (ip), vehicle: saline 101 % of control | dose: 100.0 mg/kg/injection, schedule: Q01DX005 (ip), vehicle: saline 101 % of control | dose: 200.0 mg/kg/injection, schedule: Q01DX005 (ip), vehicle: saline 107 % of control

c1ccc(CCN2COc3c(ccc4cccnc34)C2)cc1
inactive: [2] 95 % of control

OCCN1CCN(CCCN2c3ccccc3CCc3ccccc32)CC1
inactive: [3] 103 % of control and 117 % of control | [4] 100 % of control and 107 % of control | [5] 115 % of control and 116 % of control

CCCCCCCCCCCCCCCCCOc1ccc2ccccc2c1
inactive: dose: 25.0 mg/kg/injection, schedule: Q01DX001 (ip), vehicle: saline sonified 100 % of control | dose: 50.0 mg/kg/injection, schedule: Q01DX001 (ip), vehicle: saline sonified 100 % of control | [6] 90 % of control

Clc1ccc2c(c1)Cc1cc(N=Cc3ccccc3Cl)ccc1-2
inactive: dose: 42.5 mg/kg/injection, schedule: Q01DX001 (ip), vehicle: other 86 % of control | dose: 85.0 mg/kg/injection, schedule: Q01DX001 (ip), vehicle: other 95 % of control | dose: 170.0 mg/kg/injection, schedule: Q01DX001 (ip), vehicle: other 100 % of control | dose: 170.0 mg/kg/injection, schedule: Q01DX001 (ip), vehicle: saline with Tween-80 100 % of control

CN(C)C1Cc2ccccc2C1OC(=O)c1ccccc1 (centres undefined)
inactive: [7] 103 % of control | dose: 200.0 mg/kg/injection, schedule: Q01DX009 (ip), vehicle: saline 91 % of control

CC(C)(C)c1cccc(S(=O)(=O)Oc2ccccc2[N+](=O)[O-])c1
inactive: [6] 100 % of control | dose: 200.0 mg/kg/injection, schedule: Q01DX001 (ip), vehicle: saline sonified 118 % of control | dose: 400.0 mg/kg/injection, schedule: Q01DX001 (ip), vehicle: saline sonified 95 % of control

O=[N+]([O-])c1ccc(N=N/C(Cc2ccccc2)=N\Nc2ccccc2)cc1
inactive: dose: 100.0 mg/kg/injection, schedule: Q01DX009 (ip), vehicle: Klucel (hydroxypropylcellulose) (HPC) 100 % of control | dose: 200.0 mg/kg/injection, schedule: Q01DX009 (ip), vehicle: Klucel (hydroxypropylcellulose) (HPC) 100 % of control

CN(C)CCC=C1c2ccccc2-c2ccccc21
inactive: [8] 100 % of control | [1] 115 % of control | [3] 90 % of control | [7] 109 % of control and 120 % of control | [4] 100 % of control | dose: 75.0 mg/kg/injection, schedule: Q04DX003 (ip), vehicle: saline 113 % of control | dose: 100.0 mg/kg/injection, schedule: Q01DX009 (ip), vehicle: saline 113 % of control | dose: 115.0 mg/kg/injection, schedule: Q04DX003 (ip), vehicle: saline 95 % of control

CC[S+](CC)CC
inactive: [8] 109 % of control | dose: 25.0 mg/kg/injection, schedule: Q01DX001 (ip), vehicle: saline 100 % of control | [3] 109 % of control | dose: 50.0 mg/kg/injection, schedule: Q01DX001 (ip), vehicle: saline 100 % of control | [4] 109 % of control | dose: 100.0 mg/kg/injection, schedule: Q01DX001 (ip), vehicle: saline 100 % of control | [5] 100 % of control

S=C1SCN(Cc2cccs2)CN1Cc1cccs1
inactive: dose: 50.0 mg/kg/injection, schedule: Q01DX005 (ip), vehicle: saline with Tween-80 99 % of control | dose: 100.0 mg/kg/injection, schedule: Q01DX005 (ip), vehicle: saline with Tween-80 87 % of control | dose: 200.0 mg/kg/injection, schedule: Q01DX005 (ip), vehicle: saline with Tween-80 95 % of control

C#CCSc1ncnc2nc[nH]c12
inactive: [5] 100 % of control | dose: 200.0 mg/kg/injection, schedule: Q04DX003 (ip), vehicle: saline 100 % of control

O=S(=O)(Nc1ccc(O)cc1)c1ccccc1
inactive: [2] 100 % of control | dose: 200.0 mg/kg/injection, schedule: Q04DX003 (ip), vehicle: saline with Tween-80 95 % of control | dose: 400.0 mg/kg/injection, schedule: Q04DX003 (ip), vehicle: saline with Tween-80 104 % of control

Cc1ccc(S(=O)(=O)Oc2ccc([N+](=O)[O-])cc2[N+](=O)[O-])cc1
inactive: [3] 104 % of control | [4] 109 % of control | [5] 109 % of control

Nc1cc(=O)[nH]c(O)c1C(=O)O
inactive: dose: 6.25 mg/kg/injection, schedule: Q04DX003 (ip), vehicle: saline 109 % of control | [8] 100 % of control | [3] 100 % of control | dose: 35.0 mg/kg/injection, schedule: Q04DX003 (ip), vehicle: saline 100 % of control | dose: 55.0 mg/kg/injection, schedule: Q04DX003 (ip), vehicle: saline 113 % of control | dose: 80.0 mg/kg/injection, schedule: Q04DX003 (ip), vehicle: saline 100 % of control | dose: 120.0 mg/kg/injection, schedule: Q04DX003 (ip), vehicle: saline 104 % of control | dose: 180.0 mg/kg/injection, schedule: Q04DX003 (ip), vehicle: saline 86 % of control | dose: 270.0 mg/kg/injection, schedule: Q04DX003 (ip), vehicle: saline 100 % of control

O=C(Cn1ccc(=O)[nH]c1=O)N1CCOCC1
inactive: dose: 100.0 mg/kg/injection, schedule: Q01DX009 (ip), vehicle: water 104 % of control | dose: 200.0 mg/kg/injection, schedule: Q01DX009 (ip), vehicle: water 104 % of control | dose: 400.0 mg/kg/injection, schedule: Q01DX009 (ip), vehicle: water 95 % of control
